Laboratory results from PubChem BioAssay (NCI).
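A five-concentration, 48-hour dose response in 96-well plates underlies each endpoint, interpolated linearly between surrounding concentrations. Here, GI50 denotes the concentration required for 50% inhibition of growth. TGI denotes the concentration required for complete inhibition of growth.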

How the values were obtained:
Assay in all cases: NCI anticancer screen, dose series, 48 h
[1] = system: HCT-15 colon
[2] = system: HL-60(TB) leukemia
[3] = system: HOP-92 NSCLC
[4] = system: MALME-3M melanoma
[5] = system: NCI-H226 lung
[6] = system: SF-295 CNS
[7] = system: SW-620 colon
[8] = system: UACC-62 melanoma

Row | Compound | GI50 [1] | TGI [1] | GI50 [2] | TGI [2] | GI50 [3] | TGI [3] | GI50 [4] | TGI [4] | GI50 [5] | TGI [5] | GI50 [6] | TGI [6] | GI50 [7] | TGI [7] | GI50 [8] | TGI [8]
1 | O=C([CH-]C(=O)c1ccccc1)c1ccccc1.O=C([CH-]C(=O)c1ccccc1)c1ccccc1.[Nd+3].[OH-].[OH3+] | 8.5 µM | 34.1 µM | 1.8 µM | 8.17 µM | 13.6 µM | 39.7 µM | 12.4 µM | 53.2 µM | 1.94 µM | 8.28 µM | 3.95 µM | 22.8 µM | 6.89 µM | 39.8 µM | 4.76 µM | 22.2 µM
2 | COc1ccc(/C=C\c2cc(OC)c(OC)c(OC)c2)cc1OCC(=O)Nc1nc2ccc(C(F)(F)F)cc2s1 | 3.24 µM | > 100 µM | – | – | 2.88 µM | 75.6 µM | > 100 µM | > 100 µM | 3.17 µM | 31.3 µM | 3.36 µM | > 100 µM | 4.65 µM | > 100 µM | 3.9 µM | > 100 µM
3 | O=C1C=Cc2ccccc2/C1=C/c1[nH]c(=O)[nH]c1O | 7.44 µM | > 100 µM | 3.44 µM | > 100 µM | 5.75 µM | 47.8 µM | 4.19 µM | 88.2 µM | 9.59 µM | > 100 µM | 3.1 µM | 8.3 µM | – | – | 3.45 µM | > 100 µM
4 | CC[N+](CC)(CC)CCCn1c2c(c3ccccc3c1=O)C(=O)c1ccccc1-2 | 4.97 µM | > 100 µM | 58.6 µM | > 100 µM | 17.9 µM | > 100 µM | – | – | – | – | 7.38 µM | 57.9 µM | 4.24 µM | > 100 µM | 9.31 µM | 29.3 µM
5 | O=C(Nc1ncc(Cc2ccccc2Cl)s1)c1ccc2c(c1)OCCO2 | 0.119 µM | > 100 µM | 0.396 µM | – | 4.08 µM | > 81.8 µM | 0.68 µM | > 47.1 µM | 1.17 µM | 8.45 µM | 0.346 µM | 5.04 µM | 0.358 µM | > 100 µM | 0.569 µM | > 43.3 µM
6 | COc1ccc(-c2nc(-c3cn(C)c4ncccc34)cs2)cc1 | 25.3 µM | > 100 µM | 9.11 µM | > 100 µM | 2.02 µM | 55.9 µM | 22.2 µM | > 100 µM | > 100 µM | > 100 µM | 20.3 µM | > 100 µM | 19.3 µM | > 100 µM | 13 µM | > 100 µM
7 | O=C(CCCn1ccnc1[N+](=O)[O-])NCCn1ccnc1 | – | > 100 µM | – | > 100 µM | – | – | – | > 100 µM | – | > 100 µM | – | > 100 µM | – | > 100 µM | – | > 100 µM
8 | CC1(C)N=C(N)N=C(N)N1c1cc(Cl)ccc1Cl | > 100 µM | > 100 µM | 74.7 µM | > 100 µM | – | – | 59.1 µM | > 100 µM | > 100 µM | > 100 µM | > 100 µM | > 100 µM | 74.5 µM | > 100 µM | > 100 µM | > 100 µM
9 | CCSc1nc(N=Cc2cccs2)c2cn[nH]c2n1 | 24.6 µM | > 100 µM | – | – | – | – | – | – | 0.299 µM | 43.2 µM | 19.1 µM | > 100 µM | 19.7 µM | > 100 µM | 8.39 µM | 23.1 µM
10 | CC(=O)OC(C)(C)/C=C/C(=O)[C@](C)(O)[C@H]1[C@H](O)C[C@@]2(C)[C@@H]3CC=C4[C@@H](C[C@H](O)C(=O)C4(C)C)[C@]3(C)C(=O)C[C@]12C | – | 4.99 µM | – | < 0.01 µM | – | – | – | 1.55 µM | – | – | – | 0.0304 µM | – | 7.54 µM | – | 2.17 µM
11 | O=[N+]([O-])/C=C/c1c[nH]c2ccccc12 | 18.2 µM | 45.7 µM | 6.5 µM | 25 µM | – | – | 19 µM | 35.7 µM | 18.1 µM | 40.4 µM | 14 µM | 30.6 µM | 15.2 µM | 57.5 µM | 17.4 µM | 32.3 µM
12 | O=C(C(Br)Br)C(Br)C(Br)c1ccccc1 (stereo not drawn) | 1.96 µM | 4.38 µM | 5.82 µM | 25.7 µM | 6.21 µM | 19.8 µM | 3.11 µM | 8.65 µM | 3.31 µM | 15.4 µM | – | – | 2.03 µM | 4.19 µM | 3.25 µM | 11.5 µM
13 | O=C(Oc1ccc(CCl)cc1)c1ccccc1 | 0.181 µM | 0.393 µM | – | – | 0.173 µM | 0.348 µM | 0.127 µM | 0.274 µM | 0.185 µM | 0.437 µM | 0.185 µM | 0.543 µM | 0.103 µM | 0.247 µM | 0.164 µM | 0.361 µM
14 | COC(=O)/C(=C\c1c(C)[nH]c2ccccc12)S(=O)(=O)c1ccccc1 | 3.07 µM | 12.8 µM | – | – | 4.14 µM | 51.2 µM | 7.27 µM | 32.6 µM | 4.34 µM | 19.5 µM | 3.07 µM | 15.7 µM | 5.15 µM | 21.9 µM | 2.77 µM | 13.3 µM
15 | OCCCCC#Cc1ccccc1C#Cc1ccccc1C(F)(F)F | 3.5 µM | 16 µM | – | – | 6.14 µM | 18.4 µM | 14.7 µM | 37.5 µM | 16.7 µM | 44.4 µM | 2.34 µM | 6.7 µM | 4.35 µM | 16.4 µM | 11.3 µM | 23.5 µM
16 | Cc1nc2cccc(NCc3ccc(C(=O)NO)cc3)c2c(=O)n1-c1ccccc1 | 1.68 µM | 3.41 µM | 2.87 µM | 10.2 µM | 1.93 µM | 4.46 µM | 1.48 µM | 3.26 µM | 2.01 µM | 6.08 µM | 1.76 µM | 3.54 µM | 1.55 µM | 5.99 µM | – | –
17 | COc1ccc(-c2nc(-c3ccccc3)c(-c3ccccc3)n2C2CC2)cc1OC1CCCC1 | 7.26 µM | > 165 µM | 28.3 µM | 141 µM | – | – | – | – | 83.7 µM | > 165 µM | 67.5 µM | > 165 µM | 53.7 µM | > 165 µM | – | –
